Experiments:
MT4 [1] = assay: The compound was tested for its cytotoxic activity against HIV-1 replication in MT-4 cells, (50% cytotoxic concentration).; format: functional, Homo sapiens; parameters: unit not given here
[2] = Selectivity index of EC50 and CC50; format: functional
MT4 [3] = assay: The compound was tested for its inhibitory activity against HIV-1 replication in MT-4 cells(50% antiviral effective concentration); IA: inactive.; format: functional, cell-based, Homo sapiens

Row | Structure (SMILES) | CC50 (MT4 [1]) | SI [2] | EC50 (MT4 [3])
1 | c1ccc(CNCCCCCN2CCCN(CCCCCNCc3ccccc3)CCCN(CCCCCNCc3ccccc3)CCN(CCCCCNCc3ccccc3)CCC2)cc1 | 1 |  | 
2 | [Cl-].c1ccc(CNCCCCCN2CCCN(CCCCCNCc3ccccc3)CC[N+](CCCCCNCc3ccccc3)(CCCCCNCc3ccccc3)CCCN(CCCCCNCc3ccccc3)CC2)cc1 | 5 | 50 | 
3 | CC(C)(C)OC(=O)N(CCCCCN1CCCN(CCCCCN(Cc2ccccc2)C(=O)OC(C)(C)C)CCCN(CCCCCN(Cc2ccccc2)C(=O)OC(C)(C)C)CCN(CCCCCN(Cc2ccccc2)C(=O)OC(C)(C)C)CCC1)Cc1ccccc1 | >50 | > 5 | 
4 | c1ccc(CNCCCCCN2CCCN(CCCCCNCc3ccccc3)CCN(CCCCCNCc3ccccc3)CCCN(CCCCCNCc3ccccc3)CC2)cc1 | 10 | 10 | 
5 | CC(C)(C)OC(=O)N(CCCCCN1CCCN(CCCCCN(Cc2ccccc2)C(=O)OC(C)(C)C)CC[N+](CCCCCN(Cc2ccccc2)C(=O)OC(C)(C)C)(CCCCCN(Cc2ccccc2)C(=O)OC(C)(C)C)CCCN(CCCCCN(Cc2ccccc2)C(=O)OC(C)(C)C)CC1)Cc1ccccc1.Cc1ccc(S(=O)(=O)[O-])cc1 | 50 | 10 | 
6 | C1CNCCNCCCN(CCCN2CCCNCCNCCCNCC2)CCNC1 | >100 | > 100 | 
7 | [Cl-].c1ccc(CNCCCCCN2CCCN(CCCCCNCc3ccccc3)CCN(CCCCCNCc3ccccc3)CCC[N+](CCCCCNCc3ccccc3)(CCCCCNCc3ccccc3)CCC2)cc1 | 10 |  | Not Active
8 | CC(C)(C)OC(=O)N(CCCCCN1CCCN(CCCCCN(Cc2ccccc2)C(=O)OC(C)(C)C)CCN(CCCCCN(Cc2ccccc2)C(=O)OC(C)(C)C)CCCN(CCCCCN(Cc2ccccc2)C(=O)OC(C)(C)C)CC1)Cc1ccccc1 | >10 | > 10 | 
9 | CC(C)(C)OC(=O)N(CCCCCN1CCCN(CCCCCN(Cc2ccccc2)C(=O)OC(C)(C)C)CCN(CCCCCN(Cc2ccccc2)C(=O)OC(C)(C)C)CCC[N+](CCCCCN(Cc2ccccc2)C(=O)OC(C)(C)C)(CCCCCN(Cc2ccccc2)C(=O)OC(C)(C)C)CCC1)Cc1ccccc1.Cc1ccc(S(=O)(=O)[O-])cc1 | 10 |  | Not Active

Reference: ChEMBL document CHEMBL1159172, “Modelisation, Synthesis and Anti-HIV activities of N,N,N,N,N-pentakistetraazamacrocycles salts derivatives” (Bioorg Med Chem Lett, 1997)
